The conditions of data set [1]: cited from earlier work.
For data set [2] the following is noted: rats; cited from earlier work.
Data set [3] is described as follows: Non-GLP 4-week repeated high-dose toxicology study. The settings on record: nicotine 1 mg/kg/day s.c. infusion for 28d; rats. The format is in vivo. On the procedure: 8D1-IgG4 was dosed i.v. once weekly at 200 mg/kg.
Assessment of toxicity was based on mortality, clinical observations, and body weight during the course of the 28-day study, and at the end of study organ weights, gross anatomic pathology, hematology, serum clinical chemistry, and coagulation was performed. Histopathology of selected tissues (heart, liver, lung, kidney, spleen, skeletal muscle, brain, colon, stomach, ovary, and testis) is pending. Tissues were fixed immediately in formalin, and processed for embedding in paraffin, staining with H&E, and review by a veterinary pathologist.

For data set [4] the following is noted: mice; cited from earlier work.

Molecules are shown by their SMILES. Like-named read-outs stand apart in the source and are kept apart here.

The LD50 is the dose expected to kill half of the subjects tested. For the compound `CN1CCC[C@H]1c1cccnc1` [nicotine], the results for the “lethal dose (may be as high as)” value in data set [1] (human adult) and in data set [1] (in vivo) were 1.0 to 7.1 mg/kg and not below 500 mg, respectively. Also, the LD50 in data set [2] is recorded as 50 mg/kg; in data set [4] it was 3 mg/kg. Moreover, the “hematology finding in animals that received nicotine” value in data set [3] is recorded as “slight polychromasia”.

Values taken from US11440970B2, “Nicotine-binding antibodies” (priority 2017, dated 2022).
